Structures are written as SMILES. Where only a bound is given, the exact number is not on record here.

The first test concerns carmine spider mite. The experiment in a line: bioactivity test against carmine spider mite, airbrush spray. To be noted: Tetranychus cinnabarinus, 72 h, 600 mg/L; contrastive test; read-out: Insecticidal activity against carmine spider mite (% ). Format: in vivo. In outline: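 Broadbean seedlings infested with adult mites were sprayed with compound (acetone/methanol stock diluted in 0.1% Tween 80 water) by airbrush at 0.7 kg/cm^2, 0.5 ml. Three replicates were run. Mortality was scored after 72 hrs.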
Take `Cc1ncnc(NC(C)c2cccc3ccccc23)c1Cl` (stereo not drawn) [CK17, reference compound]: the pest or weed control at 600 µg/mL was determined as 40%.
Same read-out and setting: to `Cc1ncnc(NCc2ccc(Oc3nc(Cl)c(Cl)cc3Cl)cc2)c1Cl` [CK33, reference compound] belongs 41%.

The subject of another test is Green peach aphids (Myzus Persicae Sulzer). The experiment in a line: bioactivity test against green peach aphid, airbrush foliar spray. Format: in vivo. The settings on record: Myzus persicae, foliar, 48 h, 600 mg/L; contrastive test; read-out: Insecticidal activity against peach aphid (%). In outline:
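Aphids (15-30 per cabbage leaf disc) on moist filter paper were airbrush-sprayed at 10 psi, 0.5 mL, with compound from acetone:methanol (1:1) diluted in water with 0.1% tween 80. Held at 25±1 C, 60±5% RH; survivors counted after 48 hrs to give death rates.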
Regarding `Cc1ncnc(NC(C)c2cccc3ccccc23)c1Cl` (stereo not drawn) [CK17, reference compound], the pest or weed control at 600 µg/mL was determined as 0%.
The same measure, in the same setting: to `Cc1ncnc(NCc2ccc(Oc3nc(Cl)c(Cl)cc3Cl)cc2)c1Cl` [CK33, reference compound] belongs 0%.

The subject of the next test is cucumber gray mold. The experiment in a line: fungicidal activity in vitro (inhibition rate) against cucumber gray mold. Format: cell-based. To be noted: 25 ppm, in vitro; read-out: inhibition rate against cucumber gray mold.
Turning to `Cc1ncnc(NC(C)c2cccc3ccccc23)c1Cl` (stereo not drawn) [CK17, reference compound], the inhibition (in general, the relative decrease from the control value, in per cent) at 25 ppm stood at 0%.
Same read-out and setting: to `Cc1ncnc(NCc2ccc(Oc3nc(Cl)c(Cl)cc3Cl)cc2)c1Cl` [CK33, reference compound] belongs 0%.

The subject of another test is corn rust. Nature of the test: protectant activity in vivo against corn rust. The settings on record: Zea mays, 168 h, read-out: control effect against corn rust (%), 6.25 mg/L; protectant activity.
For `Cc1ncnc(NC(C)c2cccc3ccccc23)c1Cl` (stereo not drawn) [CK17, reference compound], the pest or weed control at 6.25 µg/mL was 0%.

The same test, now with this note: Zea mays, 168 h, read-out: control effect against corn rust (%), 25 mg/L; protectant activity.
Consider `Cc1ncnc(NC(C)c2cccc3ccccc23)c1Cl` (stereo not drawn) [CK17, reference compound], for which the pest or weed control at 25 µg/mL turned out to be 0%.

The test is the same for the next values; noted with them: Zea mays, 168 h, read-out: control effect against corn rust (%), 100 mg/L; protectant activity.
As for `Cc1ncnc(NC(C)c2cccc3ccccc23)c1Cl` (stereo not drawn) [CK17, reference compound], the pest or weed control at 100 µg/mL amounted to 0%.

Staying with this test, now noted: Zea mays, 168 h, read-out: control effect against corn rust (%), 400 mg/L; protectant activity.
On to `Cc1ncnc(NC(C)c2cccc3ccccc23)c1Cl` (stereo not drawn) [CK17, reference compound], for which the pest or weed control at 400 µg/mL turned out to be 100%.
Still for that read-out and setting: in the case of `Cc1ncnc(NCc2ccc(Oc3nc(Cl)c(Cl)cc3Cl)cc2)c1Cl` [CK33, reference compound] it was 0%.

In another test the test system is Diamond back moth. Nature of the test: insecticidal activity against diamond back moth, airbrush spray. Format: in vivo. To be noted: 72 h, 600 mg/L. In outline: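 Airbrush leaf-disc spray test: both faces of 2 cm cabbage discs received 0.5 ml of test solution at 0.7 kg/cm^2. Solutions were made in acetone:methanol (1:1) and brought to concentration with 0.1% Tween 80 in water. Ten second-instar larvae per disc, triplicates, were held at 25° C and 60˜70% R.H., with mortality recorded at 72 hrs.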
For `Cc1ncnc(NC(C)c2cccc3ccccc23)c1Cl` (stereo not drawn) [CK17, reference compound], the pest or weed control at 600 µg/mL was determined as 0%.
In turn, `Cc1ncnc(NCc2ccc(Oc3nc(Cl)c(Cl)cc3Cl)cc2)c1Cl` [CK33, reference compound] gave a pest or weed control at 600 µg/mL of 29%.

The test system of a further test is rice blast. The experiment in a line: microbe, parasite or virus in culture. Format: cell-based. The settings on record: Pyricularia oryzae, read-out: inhibition rate against rice blast, 2.8 ppm, in vitro.
Consider `Cc1ncnc(NC(C)c2cccc3ccccc23)c1Cl` (stereo not drawn) [CK17, reference compound], for which the inhibition at 2.8 ppm was 0%.

Still in this test, the particulars now being: Pyricularia oryzae, read-out: inhibition rate against rice blast, 8.3 ppm, in vitro.
`Cc1ncnc(NC(C)c2cccc3ccccc23)c1Cl` (stereo not drawn) [CK17, reference compound]: the inhibition at 8.3 ppm was 50%.

The same test, now with this note: Pyricularia oryzae, read-out: inhibition rate against rice blast, 25 ppm, in vitro.
In the case of `Cc1ncnc(NCc2ccc(Oc3nc(Cl)c(Cl)cc3Cl)cc2)c1Cl` [CK33, reference compound], the inhibition at 25 ppm was below 50%.

The test system of the next test is armyworm. Nature of the test: bioactivity test against armyworm, airbrush spray. Format: in vivo. The settings on record: 72 h, 10 mg/L; read-out: Insecticidal activity against armyworm (%).
In the case of `Cc1ncnc(NCc2ccc(Oc3nc(Cl)c(Cl)cc3Cl)cc2)c1Cl` [CK33, reference compound], the pest or weed control at 10 µg/mL was 0%.

Still in this test, the particulars now being: 72 h, 100 mg/L; read-out: Insecticidal activity against armyworm (%).
For `Cc1ncnc(NCc2ccc(Oc3nc(Cl)c(Cl)cc3Cl)cc2)c1Cl` [CK33, reference compound], the pest or weed control at 100 µg/mL is 0%.

The same test, now with this note: 72 h, 600 mg/L; read-out: Insecticidal activity against armyworm (%).
In the case of `Cc1ncnc(NC(C)c2cccc3ccccc23)c1Cl` (stereo not drawn) [CK17, reference compound], the pest or weed control at 600 µg/mL was determined as 0%.
As for `Cc1ncnc(NCc2ccc(Oc3nc(Cl)c(Cl)cc3Cl)cc2)c1Cl` [CK33, reference compound], the pest or weed control at 600 µg/mL is 100%.

A further test relates to cucumber downy mildew. The experiment in a line: protectant activity in vivo against cucumber downy mildew. To be noted: Cucumis sativus, 168 h, read-out: control effect against cucumber downy mildew (%), 25 mg/L; protectant activity.
Regarding `Cc1ncnc(NC(C)c2cccc3ccccc23)c1Cl` (stereo not drawn) [CK17, reference compound], the pest or weed control at 25 µg/mL was 0%.

Still in this test, the particulars now being: Cucumis sativus, 168 h, read-out: control effect against cucumber downy mildew (%), 50 mg/L; protectant activity.
`Cc1ncnc(NC(C)c2cccc3ccccc23)c1Cl` (stereo not drawn) [CK17, reference compound]: the pest or weed control at 50 µg/mL turned out to be 10%.

The same test, now with this note: Cucumis sativus, 168 h, read-out: control effect against cucumber downy mildew (%), 100 mg/L; protectant activity.
In the case of `Cc1ncnc(NC(C)c2cccc3ccccc23)c1Cl` (stereo not drawn) [CK17, reference compound], the pest or weed control at 100 µg/mL is 40%.

Staying with this test, now noted: Cucumis sativus, 168 h, read-out: control effect against cucumber downy mildew (%), 400 mg/L; protectant activity.
For the compound `Cc1ncnc(NC(C)c2cccc3ccccc23)c1Cl` (stereo not drawn) [CK17, reference compound], the pest or weed control at 400 µg/mL is 100%.
For `Cc1ncnc(NCc2ccc(Oc3nc(Cl)c(Cl)cc3Cl)cc2)c1Cl` [CK33, reference compound], the pest or weed control at 400 µg/mL worked out at 0%.

The subject of another test is wheat powdery mildew. Nature of the test: protectant activity in vivo against wheat powdery mildew. To be noted: Triticum aestivum, 168 h, read-out: control effect against wheat powdery mildew (%), 6.25 mg/L; protectant activity.
In the case of `Cc1ncnc(NC(C)c2cccc3ccccc23)c1Cl` (stereo not drawn) [CK17, reference compound], the pest or weed control at 6.25 µg/mL was determined as 50%.

The test is the same for the next values; noted with them: Triticum aestivum, 168 h, read-out: control effect against wheat powdery mildew (%), 25 mg/L; protectant activity.
Take `Cc1ncnc(NC(C)c2cccc3ccccc23)c1Cl` (stereo not drawn) [CK17, reference compound]: the pest or weed control at 25 µg/mL was 70%.

Staying with this test, now noted: Triticum aestivum, 168 h, read-out: control effect against wheat powdery mildew (%), 100 mg/L; protectant activity.
`Cc1ncnc(NC(C)c2cccc3ccccc23)c1Cl` (stereo not drawn) [CK17, reference compound]: the pest or weed control at 100 µg/mL was found to be 75%.

Staying with this test, now noted: Triticum aestivum, 168 h, read-out: control effect against wheat powdery mildew (%), 400 mg/L; protectant activity.
As for `Cc1ncnc(NC(C)c2cccc3ccccc23)c1Cl` (stereo not drawn) [CK17, reference compound], the pest or weed control at 400 µg/mL was 100%.
Same read-out and setting: in the case of `Cc1ncnc(NCc2ccc(Oc3nc(Cl)c(Cl)cc3Cl)cc2)c1Cl` [CK33, reference compound] it was 0%.

The values above are taken from patent publication US9770026B2, “Substituted pyrimidine compound and uses thereof” (Shenyang Sinochem Agrochemicals R&D Co., Ltd., priority 2012, dated 2017).
